This note sets out measurements from ChEMBL document CHEMBL1201862, “PubChem BioAssay data set” (2004).

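Method: 48-hour compound exposure of cells in 96-well plates, five concentrations, linear interpolation of endpoints. GI50 = concentration required for 50% inhibition of growth.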 The source made the active and inactive calls. Rule as the data show it: active = GI50 up to about 1.1 µM and inactive = higher.

What all share (experiment): NCI tumour cell line growth inhibition, 48 h
The test system of assay [1] is RXF 393.
The test system of assay [2] is SK-MEL-5.
In assay [3] the test system is UACC-62.
Assay [4] relates to UO-31.
Assay [5] deals with SW-620.
Assay [6] relates to 786-0.
Assay [7] deals with HCT-15.
The test system of assay [8] is HCC 2998.
The subject of assay [9] is MOLT-4.
Assay [10] concerns SF-295.
For assay [11], the system named is ACHN.
Assay [12] concerns SK-MEL-2.
Assay [13] concerns SK-MEL-28.
Assay [14] deals with IGROV-1.
Assay [15] concerns COLO 205.
In assay [16] the test system is MDA-MB-231.
Assay [17] has as its system MCF7.
For assay [18], the system named is DU-145.
For assay [19], the system named is MDA-N.

Turning to `c1ccc2cc3[s+]snc3cc2c1`, the GI50 is > 100 µM (inactive) in [1]; 97.9 µM (inactive) in [2]; > 100 µM (inactive) in assay [3]; > 100 µM (inactive) in assay [4]; > 100 µM (inactive) in assay [5]; > 100 µM (inactive) in assay [6]. Further, the GI50 in assay [7] was over 100 µM; in assay [8] it was > 100 µM (inactive); in [9] it was > 100 µM (inactive); in assay [10] it was > 100 µM (inactive); in [11], > 100 µM (inactive); in assay [12] it was > 100 µM (inactive). Moreover, the GI50 in assay [13], in assay [14] and in assay [15] was > 100 µM (inactive) throughout.

As to `COC(=O)c1c(O)ccc2c1c1c(n2C)C(=O)c2ccccc2C1=O`, the GI50 is 15.4 µM (inactive) in assay [1]; 30.9 µM (inactive) in [2]; 6.75 µM (inactive) in assay [4]; 59.4 µM (inactive) in assay [5]; 15.3 µM (inactive) in [6]; 13.1 µM in assay [7]. Further, the GI50 was 11.3 µM (inactive) in [8]; 5.78 µM (inactive) in [9]; 22.5 µM (inactive) in assay [10]; 9.29 µM (inactive) in assay [11]; 25.4 µM (inactive) in assay [12]; 10 µM (inactive) in assay [16]. For the same molecule, the GI50 in assay [13] is 32.7 µM (inactive); in [17], 9.18 µM (inactive); in assay [18] it was 11.9 µM (inactive); in assay [14], 4 µM (inactive); in assay [15] it was 65.9 µM (inactive).

For `COC(=O)c1csc(-c2csc(CCNC(=O)OC(C)(C)C)n2)n1`, the GI50 in assay [1] was > 100 µM (inactive); in assay [2] it was 90.6 µM (inactive); in assay [3] it was 59.7 µM (inactive); in assay [4], > 100 µM (inactive); in [5] it was > 100 µM (inactive); in assay [6], > 100 µM (inactive). Further, the GI50 is over 100 µM in [7]; > 100 µM (inactive) in [8]; 42.7 µM (inactive) in [9]; > 100 µM (inactive) in assay [10]; > 100 µM (inactive) in [19]; > 100 µM (inactive) in [11]. Besides, the GI50 in assay [13], in [17], in assay [18], in assay [14] and in [15] was > 100 µM (inactive) in each case.

With `O=C(Nc1ccccc1C(=O)O)C(=O)C(C(=O)c1ccccc1-c1ccccc1)C1OC(=O)c2ccccc21` (centres undefined), the GI50 was 13.6 µM (inactive) in [1]; 19.2 µM (inactive) in assay [2]; 16.6 µM (inactive) in assay [3]; 18 µM (inactive) in [4]; 27.3 µM (inactive) in assay [5]; 18 µM (inactive) in assay [6]. Besides, the GI50 in assay [7] is 16.5 µM; in [8] it was 16.5 µM (inactive); in assay [9], 21.8 µM (inactive); in assay [10], 25.2 µM (inactive); in [11] it was 34 µM (inactive); in [12] it was 38 µM (inactive). The values for the GI50 in assay [13], in assay [14] and in assay [15] were 19.4 µM (inactive), 25.6 µM (inactive) and 24 µM (inactive), respectively.

On to `Brc1cccc(Nc2nc(-c3cccs3)nc3ccc(Br)cc23)c1`, for which the GI50 in [2] is 14 µM (inactive); in assay [3], 17.8 µM (inactive); in assay [4], 47 µM (inactive); in assay [5] it was 26.9 µM (inactive); in assay [6], 28.2 µM (inactive); in [7], 26.5 µM. In addition, the GI50 in assay [8] was 20.2 µM (inactive); in [9], 26.6 µM (inactive); in assay [10] it was 19.9 µM (inactive); in assay [11], 27.7 µM (inactive); in assay [12] it was 32.1 µM (inactive); in [16], 20.7 µM (inactive). The GI50 is 25.2 µM (inactive) in assay [13]; 14.2 µM (inactive) in [17]; 36.1 µM (inactive) in assay [18]; 26.7 µM (inactive) in assay [14]; 33 µM (inactive) in assay [15].

As to `Nc1ncnc2c1ncn2C1OC(CSCC(F)(F)F)C(O)C1O` (centres undefined), the GI50 in assay [1], in assay [2], in assay [3], in assay [4], in [5] and in assay [6] was > 100 µM (inactive) in each case. For the same molecule, the GI50 in assay [7] is over 100 µM; in [8], > 100 µM (inactive); in [9] it was > 100 µM (inactive); in assay [10], > 100 µM (inactive); in [11], > 100 µM (inactive); in [12], > 100 µM (inactive). Moreover, the GI50 in assay [13], in assay [14] and in assay [15] was > 100 µM (inactive) each time.

Turning to `CC(C)(C)c1ccnc(/N=C2\N/C(=N\c3cc(C(C)(C)C)ccn3)c3ccccc32)c1`, the GI50 is 22.3 µM (inactive) in [1]; 50.1 µM (inactive) in assay [3]; 32 µM (inactive) in assay [4]; 42.7 µM (inactive) in [5]; 19.3 µM (inactive) in assay [6]; 24.3 µM in assay [7]. Also, the GI50 is 7.14 µM (inactive) in [9]; 23.4 µM (inactive) in assay [10]; > 100 µM (inactive) in [11]; 56.9 µM (inactive) in [12]; 24.4 µM (inactive) in assay [13]; 23.1 µM (inactive) in assay [14]. Also, the GI50 in assay [15] was > 100 µM (inactive).

In the case of `N=C(N)NCCN1CCCCCc2ccccc21`, the GI50 in assay [1] was > 10 µM (inactive); in [2], > 10 µM (inactive); in assay [3], 9.25 µM (inactive); in assay [5] it was > 10 µM (inactive); in assay [6] it was > 10 µM (inactive); in assay [7], over 10 µM. Moreover, the GI50 in assay [8], in assay [9], in [10], in assay [11], in assay [12] and in assay [16] was > 10 µM (inactive) in each case. Further, the GI50 in [13], in assay [17], in assay [18], in [14] and in [15] was > 10 µM (inactive) in each case.

With `CCC(C(=O)C(=O)C(CC)P1(=O)OC(C)(C)CN1C(C)(C)C)P1(=O)OC(C)(C)CN1C(C)(C)C` (centres undefined), the GI50 in assay [1], in [2], in [3], in assay [4], in assay [5] and in assay [6] was > 100 µM (inactive) each time. Moreover, the GI50 in assay [7] was over 100 µM; in [8] it was > 100 µM (inactive); in [9] it was 22.2 µM (inactive); in assay [10], > 100 µM (inactive); in assay [11], > 100 µM (inactive); in assay [12], > 100 µM (inactive). Besides, the GI50 is > 100 µM (inactive) in [16]; > 100 µM (inactive) in assay [13]; 68.5 µM (inactive) in assay [17]; > 100 µM (inactive) in assay [18]; > 100 µM (inactive) in assay [14]; > 100 µM (inactive) in assay [15].

As for `O=C1/C(=C\c2ccc(Cl)cc2)N=C(c2ccccc2)N1n1c(=O)cn[nH]c1=S`, the GI50 was 21.7 µM (inactive) in [2]; 33.7 µM (inactive) in assay [3]; 60.4 µM (inactive) in assay [4]; 18.1 µM (inactive) in [5]; 18.4 µM (inactive) in assay [6]; 21.5 µM in assay [7]. The GI50 in assay [8] was 84.3 µM (inactive); in assay [9], 18.7 µM (inactive); in assay [10], > 100 µM (inactive); in assay [19], 52.6 µM (inactive); in assay [11] it was > 100 µM (inactive); in assay [12], > 100 µM (inactive). Further, the GI50 was > 100 µM (inactive) in [13]; 18.4 µM (inactive) in assay [17]; 19.8 µM (inactive) in assay [18]; 18.5 µM (inactive) in [14]; > 100 µM (inactive) in assay [15].

Take `COc1ccc2nc3ccc(OC)cc3c(SCc3ccccc3)c2c1`: the GI50 in [1] was > 100 µM (inactive); in [2] it was > 100 µM (inactive); in assay [3], > 100 µM (inactive); in assay [5], > 74.3 µM (inactive); in [6], 76 µM (inactive); in assay [7], over 95.5 µM. The GI50 in [8] is 38.8 µM (inactive); in assay [9] it was > 41.6 µM (inactive); in assay [10] it was > 91 µM (inactive); in [11], 97.9 µM (inactive); in assay [12], > 100 µM (inactive); in [16], > 100 µM (inactive). The GI50 was > 85.7 µM (inactive) in assay [13]; > 55.3 µM (inactive) in [17]; > 100 µM (inactive) in assay [18]; > 63.1 µM (inactive) in assay [14]; > 86.3 µM (inactive) in assay [15].

In the case of `N#CC(C(=O)CCCC(=O)Nc1ccc(Cl)cc1Cl)c1ccc(Cl)cc1` (centres undefined), the GI50 in assay [3] was > 100 µM (inactive); in assay [4], > 100 µM (inactive); in [5] it was > 100 µM (inactive); in assay [6], > 100 µM (inactive); in assay [7], over 100 µM; in [8] it was > 100 µM (inactive). Also, the GI50 in assay [9], in assay [10], in assay [11], in assay [12], in assay [13] and in [14] was > 100 µM (inactive) in each case. For the same molecule, the GI50 in [15] was > 100 µM (inactive).

In the case of `Nc1ccn(CCOC(=O)c2ccccc2)c(=O)n1`, the GI50 in assay [1], in [2], in assay [3], in assay [4], in assay [5] and in [6] was > 100 µM (inactive) each time. Moreover, the GI50 is over 100 µM in [7]; > 100 µM (inactive) in assay [10]; > 100 µM (inactive) in assay [11]; > 100 µM (inactive) in assay [12]; > 100 µM (inactive) in assay [13]; > 100 µM (inactive) in assay [14]. Also, the GI50 in assay [15] was > 100 µM (inactive).
